Measured values: the NIST ThermoML archive (doi:10.1016/j.jct.2015.06.021)
Values joined by “and” are separate entries in the source; they are usually repeats but may differ in a detail not shown here. Equal values may be shown once. ± gives the expanded uncertainty stated by the source.

What was measured:
[1] = Crystal; for vapor or sublimation pressure: Calculated from knudsen effusion weight loss; for Normal melting temperature: DTA
[2] = Molar enthalpy of transition or fusion; details: Crystal; DSC

Structure (SMILES): c1ccc2cc3ccccc3cc2c1 [anthracene]
- vapor or sublimation pressure ([1]; 301.3 K): 1.3e-06 ± 1e-07 kPa
- vapor or sublimation pressure ([1]; 303.3 K): 1.8e-06 ± 2e-07 kPa
- vapor or sublimation pressure ([1]; 303.6 K): 1.7e-06 ± 2e-07 kPa
- vapor or sublimation pressure ([1]; 305.7 K): 2.5e-06 ± 3e-07 kPa
- vapor or sublimation pressure ([1]; 305.9 K): 2.2e-06 ± 2e-07 kPa
- vapor or sublimation pressure ([1]; 307.8 K): 3.2e-06 ± 6e-07 kPa
- vapor or sublimation pressure ([1]; 308.1 K): 3.9e-06 ± 6e-07 kPa
- vapor or sublimation pressure ([1]; 308.2 K): 3.3e-06 ± 3e-07 kPa
- vapor or sublimation pressure ([1]; 310 K): 4.3e-06 ± 4e-07 kPa
- vapor or sublimation pressure ([1]; 310.2 K): 4.2e-06 ± 5e-07 kPa
- vapor or sublimation pressure ([1]; 310.5 K): 4.5e-06 ± 5e-07 kPa
- vapor or sublimation pressure ([1]; 313.3 K): 6.5e-06 ± 6e-07 kPa
- vapor or sublimation pressure ([1]; 314.5 K): 7.3e-06 ± 7e-07 kPa
- vapor or sublimation pressure ([1]; 314.7 K): 7.4e-06 ± 7e-07 kPa
- vapor or sublimation pressure ([1]; 314.9 K): 7.6e-06 ± 8e-07 kPa
- vapor or sublimation pressure ([1]; 317.6 K): 1.05e-05 ± 1e-06 kPa
- vapor or sublimation pressure ([1]; 318.8 K): 1.1e-05 ± 1.1e-06 kPa
- vapor or sublimation pressure ([1]; 319.2 K): 1.28e-05 ± 1.5e-06 kPa
- vapor or sublimation pressure ([1]; 322.3 K): 1.81e-05 ± 1.8e-06 kPa
- vapor or sublimation pressure ([1]; 323.1 K): 2.05e-05 ± 2e-06 kPa and 1.74e-05 ± 1.7e-06 kPa
- vapor or sublimation pressure ([1]; 323.2 K): 2.12e-05 ± 2.1e-06 kPa
- vapor or sublimation pressure ([1]; 323.8 K): 2.09e-05 ± 2e-06 kPa
- vapor or sublimation pressure ([1]; 326.6 K): 2.96e-05 ± 2.9e-06 kPa
- vapor or sublimation pressure ([1]; 328 K): 3.16e-05 ± 3.1e-06 kPa
- vapor or sublimation pressure ([1]; 328.6 K): 3.48e-05 ± 3.5e-06 kPa
- vapor or sublimation pressure ([1]; 331.5 K): 4.92e-05 ± 4.9e-06 kPa
- vapor or sublimation pressure ([1]; 333.1 K): 6.27e-05 ± 6.2e-06 kPa
- vapor or sublimation pressure ([1]; 333.3 K): 6.36e-05 ± 6.2e-06 kPa
- vapor or sublimation pressure ([1]; 333.7 K): 6.31e-05 ± 6.1e-06 kPa
- vapor or sublimation pressure ([1]; 336.3 K): 8.09e-05 ± 7.9e-06 kPa
- vapor or sublimation pressure ([1]; 338.2 K): 8.49e-05 ± 8.3e-06 kPa
- vapor or sublimation pressure ([1]; 338.8 K): 0.0001028 ± 1.2e-05 kPa and 9.99e-05 ± 1.1e-05 kPa
- vapor or sublimation pressure ([1]; 343.1 K): 0.000173 ± 1.8e-05 kPa and 0.0001738 ± 1.8e-05 kPa
- vapor or sublimation pressure ([1]; 343.4 K): 0.0001646 ± 1.7e-05 kPa and 0.0001599 ± 1.8e-05 kPa
- vapor or sublimation pressure ([1]; 348.1 K): 0.0002492 ± 2.5e-05 kPa
- vapor or sublimation pressure ([1]; 348.2 K): 0.0002587 ± 2.6e-05 kPa
- vapor or sublimation pressure ([1]; 353.2 K): 0.0004347 ± 4.3e-05 kPa
- vapor or sublimation pressure ([1]; 363.2 K): 0.001018 ± 0.00012 kPa
- vapor or sublimation pressure ([1]; 373.2 K): 0.002158 ± 0.00026 kPa
- Normal melting temperature [1]: 217 ± 2 °C
- Molar enthalpy of transition or fusion [2]: 6.55 ± 0.932 kcal/mol

Structure (SMILES): c1ccc2c(c1)ccc1ccccc12 [phenanthrene]
- vapor or sublimation pressure ([1]; 296.2 K): 1.61e-05 ± 1.6e-06 kPa
- vapor or sublimation pressure ([1]; 297.2 K): 1.86e-05 ± 1.9e-06 kPa
- vapor or sublimation pressure ([1]; 298.2 K): 2.1e-05 ± 2.1e-06 kPa
- vapor or sublimation pressure ([1]; 299.2 K): 2.43e-05 ± 2.4e-06 kPa
- vapor or sublimation pressure ([1]; 300.2 K): 2.7e-05 ± 2.7e-06 kPa
- vapor or sublimation pressure ([1]; 301.2 K): 3e-05 ± 3e-06 kPa
- vapor or sublimation pressure ([1]; 302.2 K): 3.43e-05 ± 3.4e-06 kPa
- vapor or sublimation pressure ([1]; 303.2 K): 3.83e-05 ± 3.8e-06 kPa
- vapor or sublimation pressure ([1]; 304.2 K): 4.3e-05 ± 4.3e-06 kPa
- vapor or sublimation pressure ([1]; 305.2 K): 4.88e-05 ± 4.9e-06 kPa
- vapor or sublimation pressure ([1]; 306.2 K): 5.4e-05 ± 5.4e-06 kPa
- vapor or sublimation pressure ([1]; 307.2 K): 6.08e-05 ± 6e-06 kPa
- vapor or sublimation pressure ([1]; 308.2 K): 6.73e-05 ± 6.7e-06 kPa
- vapor or sublimation pressure ([1]; 309.2 K): 7.49e-05 ± 7.4e-06 kPa
- vapor or sublimation pressure ([1]; 310.2 K): 8.41e-05 ± 8.3e-06 kPa
- vapor or sublimation pressure ([1]; 311.2 K): 9.35e-05 ± 9.3e-06 kPa
- vapor or sublimation pressure ([1]; 312.2 K): 0.0001041 ± 1e-05 kPa
- vapor or sublimation pressure ([1]; 313.2 K): 0.0001151 ± 1.1e-05 kPa
- Normal melting temperature [1]: 99 ± 2 °C
- Molar enthalpy of transition or fusion [2]: 3.62 ± 0.526 kcal/mol
